Measured values from patent US20200230074A1, “NICOTINE-CONTAINING TRANSPARENT TRANSDERMAL THERAPEUTIC SYSTEM” (LTS Lohmann Theraple-Systeme AG, priority 2017, published 2020).

How the values were obtained:
[1] = Storage of nicotine Eudragit E 100 solutions with antioxidants, visual colour (Pantone Colour Code); assay type: physicochemical; conditions: stored in the dark 4 weeks at 60° C. or 80° C.
Excerpt: Since polyisobutylenes contain terminal double bonds and therefore have to be stabilised by the antioxidant butyl hydroxytoluene, it was examined whether the avoidance of nicotine discolouration can be achieved by antioxidants. Pharmaceutically acceptable antioxidants were therefore added to nicotine in graded-concentrations in 2 test series to form solutions of Eudragit E 100 (cationic copolymer based on dimethylaminoethyl methacrylate, butyl methacrylate and methyl methacrylate in a ratio of 2:1:1). These solutions were stored in the dark for 4 weeks at 60° C. or 80° C.
Butyl hydroxytoluene (BHT), ascorbyl palmitate and tocopherol were tested as antioxidants.
The samples were examined visually after storage, and the relevant Pantone Colour Code for the colour of the sample was determined. The Pantone Colour Code is an internationally used colour system developed by the company Pantone LLC, USA. As a result it is possible to determine that the antioxidants were unable to suppress the discolouration of the nicotine.

[2] = Analysis of nicotine degradation products in stored samples; assay type: physicochemical; conditions: conclusion from degradation products
Protocol: In order to check which decomposition products of nicotine cause the brown colour, sample Nic 0007 was analysed.

## CCCCCCCCCCCCCCCC(=O)OC[C@H](O)[C@H]1OC(=O)C(O)=C1O [ascorbyl palmitate]
[1]
  suppression of the discolouration of nicotine: does not prevent the brown colouration of nicotine
[2]
  decomposition of nicotine: does prevent its decomposition
